The text below walks through data of patent US12516016B2, “GPX4 inhibitors, pharmaceutical compositions thereof, and their use for treating GPX4-mediated diseases” (EUBULUS BIOTHERAPEUTICS (HONG KONG) LIMITED, priority 2020, dated 2026).

Each structure is given as a SMILES string. pEC50: −log10 of the molar value. A value given as a limit tells only on which side of the number the result lay.

What all share (format): cell-based
For assay [1], the system named is hepatocellular carcinoma cell line. Kind of assay: Anti-proliferation activity in the presence of a ferroptosis inhibitor. The conditions noted are these: in the presence of ferrostatin-1 (1 μM); read-out: Inhibition of Cell Proliferation EC50, Ferrostatin-1. As for the experimental part: (§1) The activity of a test compound was determined in a cell proliferation assay using the hepatocellular carcinoma cell line […]. Cells (4,000 cells per well) were seeded in a 96-well tissue culture plate. After incubated overnight, a test compound was added at predetermined concentrations, starting with 10 μM and followed by 3-fold serial dilution. After the cells were incubated for 24 h, cell viability was determined using a CELL-TITER GLO® assay. The CELL-TITER GLO® reagent (50 μL) was added to each well and the luminescence was measured by a multimode microplate reader after a brief period of shaking. EC50 values were determined for the test compound. The results are summarized in Table 1, wherein A represents a value no greater than 100 nM, B represents a value greater than 100 nM but no greater than 500 nM, C represents a value greater than 500 nM but no greater than 2 μM, D represents a value greater than 2 μM but no greater than 10 μM; and E represents a value greater than 10 μM.
(§2) The anti-proliferation activity of compound 80 was tested in the presence of an ferroptosis inhibitor, ferrostatin-1 (1 μM) or liproxstatin-1 (1 μM).

Assay [2] concerns hepatocellular carcinoma cell line Hub-7. The description is as above. How it is done:
as §1, §2

The test system is the same in assay [3]. The assay can be described thus: Cell proliferation assay (CELL-TITER GLO cell viability). The conditions noted are these: Hub-7 cells, 24 h incubation, read-out: Inhibition of Cell Proliferation EC50. The method in brief: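 […] cells (4,000/well) seeded overnight, then exposed 24 h to compound from 10 μM in 3-fold serial dilutions. Viability read by CELL-TITER GLO luminescence; EC50 values derived.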

With `C#CC(=O)N(c1cccc(Cl)c1)C1(C(=O)NCc2ccccc2)CCOCC1` [A80, N-Benzyl-4-(N-(3-chlorophenyl)propiolamido)tetrahydro-2H-pyran-4-carboxamide], the pEC50 in assay [1] was less than 5.00; in assay [2] (in the presence of liproxstatin-1 (1 μM), read-out: Inhibition of Cell Proliferation EC50, Liproxstatin-1), less than 5.00; in assay [2] (read-out: Inhibition of Cell Proliferation EC50, No Ferroptosis inhibitor), no less than 7.00; in assay [3] (24 h), no less than 7.00.

As for `C#CC(=O)N(c1cccc(Cl)c1)C1(C(=O)NCc2ccccc2)COC1` [A86, N-Benzyl-3-(N-(3-chlorophenyl)propiolamido)oxetane-3-carboxamide], the pEC50 in assay [3] (24 h) is 6.30 to 7.00.

Turning to `C#CC(=O)N(c1ccc2nncn2c1)C(C(=O)NCc1ccccc1)c1ccccc1` (stereo not shown) [A105, N-([1,2,4]Triazolo[4,3-a]pyridin-6-yl)-N-(2-(benzylamino)-2-oxo-1-phenylethyl)-propiolamide], the pEC50 in assay [3] (24 h) is 6.30 to 7.00.

On to `C#CC(=O)N(c1cccc(C(=O)OC)c1)C(C(=O)NC(C)(C)C)c1ccc(N)cc1` (stereo not shown) [A28, Methyl 3-(N-(1-(4-aminophenyl)-2-(tert-butylamino)-2-oxoethyl)-propiolamido)-benzoate], for which the pEC50 in assay [3] is 6.30 to 7.00.

In the case of `C#CC(=O)N(c1cc2c(cc1I)OCO2)C(C(=O)NCc1ccccc1)c1ccccc1` (stereo not shown) [A146, N-(2-(Benzylamino)-2-oxo-1-phenylethyl)-N-(6-iodobenzo[d][1,3]dioxol-5-yl)-propiolamide], in assay [3] (24 h), the pEC50 is no less than 7.00.

Take `C#CC(=O)N(c1cccc(CO)c1)C(C(=O)NCc1ccccc1)c1cccc(N)c1` (stereo not shown) [A39, N-(1-(3-Aminophenyl)-2-(benzylamino)-2-oxoethyl)-N-(3-(hydroxymethyl)-phenyl)propiolamide]: in assay [3] (24 h), the pEC50 was 5.00 to 5.70.

Turning to `C#CC(=O)N(c1ccc2c(cnn2C)c1)C1(C(=O)NCc2ccccc2)CCCOC1` (stereo not shown) [A176, N-Benzyl-3-(N-(1-methyl-1H-indazol-5-yl)propiolamido)tetrahydro-2H-pyran-3-carboxamide], the pEC50 in assay [3] (24 h) is no less than 7.00.
